Measurements from patent US7678386B2, “Liposomes coated with selected antibodies that bind to aminophospholipids” (Board of Regents the University of Texas, priority 2002, dated 2010).
Like-named read-outs stand apart in the source and are kept apart here.

What was measured:
[1] = Anti-PS ELISA on PS-coated plates; format: binding
Method: The anti-PS ELISA used in the present studies is conducted as follows. Unless particular differences are specified, this is the format of the ELISA used throughout the studies of the present application.
The ELISA is exemplified using the antigen PS (P-6641 25 mg 10 mg/ml (solvent is Chloroform:MeOH 95:5) in 2.5 ml bottle). Other phospholipids can be used using the same protocol. The PS (or other phospholipids) stock solution should be aliquoted and stored in an airtight container at −30° C. The preferred 96 well plates are Dynatech U bottom Immulon 1 (from Dynatech Labs. Cat# 011-010-3550).
The standard blocking buffer used herein is 10% bovine serum dissolved in PBS. Other blocking solutions are suitable, but any detergents should be excluded from block and wash solutions. The primary antibody is the test sample or admixture. The preferred secondary antibody is goat, anti-mouse IgG-HRP. The developing solutions are: 10 ml of 0.2 M Na2PO4, 10 ml of 0.1 M citric acid, one 10 mg tablet of OPD, and 10 μl of hydrogen peroxide. The stop solution is 0.18 M H2SO4.
The protocol entails coating 96-well plate with PS as follows: dilute the PS stock solution in n-hexane to 10 μg/ml and mix well. Add 50 μl to each well and allow this to evaporate for one hour. Add 200 μl of 10% serum (or other blocking buffer) to each well, cover and maintain at room temperature for 2 hours or overnight at 4° C. Wash the plate three times with PBS. Add the primary antibody (dilute in blocking buffer) and incubate for 2 hours at 37° C. Wash three times with PBS. Add 100 μl/well of secondary antibody (typically goat. anti-mouse IgG-HRP or other appropriate secondary antibody) and incubate for 1 hour at 37° C. Wash the plate three times with PBS. Develop the ELISA by adding 100 μl of developing solution to each of the wells, develop for 10 minutes, then add 100 μl of stop solution to each plate and read the O.D. at 490 nm.

[2] = tested on: blood vessels of L540 tumors; assay: Annexin V inhibition of coaguligand-induced thrombosis in vivo; parameters: species or system mouse
Method: The ability of Annexin V to inhibit coaguligand-induced thrombosis in vivo was examined in L540 Hodgkin-bearing SCID mice. Tumors were grown in mice and two mice per group (tumor size 0.5 cm in diameter) were injected intravenously via the tail vein with one of the following reagents: a) saline; b) 100 μg of Annexin V; c) 40 μg of anti-VCAM-1•tTF; d) 100 μg of Annexin V followed 2 hours later by 40 μg of anti-VCAM-1•tTF.
Four hours after the last injection mice were anesthetized and perfused with heparinized saline. Tumors were removed, fixed with 4% formalin, paraffin-embedded and stained with hematoxylene-eosin. The number of thrombosed and non-thrombosed blood vessels was counted and the percentage of thrombosis was calculated.

[3] = Competition of 9D2 and annexin V for binding to immobilized PS; settings: competitor in 10-fold molar excess
Method: Biotinylated 9D2 antibody and annexin V were prepared by incubating purified proteins with a 10-fold molar excess of N-hydroxysuccinimide biotin (Sigma, Mo.) for 1 h at room temperature. Free biotin was removed by dialysis against PBS. […] For competition studies, […] biotinylated proteins were premixed with a 10-fold molar excess of unmodified proteins. The mixtures were then added to PS-coated plates. Bound reagents were detected by streptavidin-HRP conjugate diluted 1:1000. The binding to PS of each reagent in the absence of a competitor was taken as the 100% value.

[4] = tested on: vascular endothelium of tumors and normal organs; assay: Detection of anionic phospholipids in tumor bearing mice in vivo (9D2, annexin V); parameters: species or system mouse
Method: For localization studies, 2×10^7 L540 human Hodgkin's lymphoma cells or 1×10^7 cells of other tumor types were injected subcutaneously into the right flank of SCID mice (Charles River. Wilmington, Mass.). Tumors were allowed to reach a volume of 0.4-0.7 cm^3. A minimum of three animals per group was used. Studies were replicated at least three times.
Female nu/nu or SCID mice were purchased from Charles River. MDA-MB-231 human mammary carcinoma cells were implanted into the mammary fat pad according to a published protocol (Price. 1996). Briefly, mice were anesthetized and a 5-mm incision was made in the skin over the lateral thorax. The mammary pad was exposed to ensure the correct site for injection of 1×10^7 MDA-MB-231 cells re-suspended in 0.1 ml of saline.
To detect externally-positioned phospholipids, methods were performed essentially as previously described (Example V; Ran et al., 1998). Tumor-bearing SCID mice were injected intravenously with either 50 μg of 9D2 or biotinylated 9D2 antibody or 100 μg of biotinylated annexin V. Sixty min later mice were sacrificed and their blood circulation was exsanguinated and perfused with heparinized saline as previously described (Burrows et al., 1992). All major organs and tumor were harvested and snap-frozen for preparation of cryosections.
Sections were blocked with PBS containing 10% serum. To prevent loss of phospholipids during slide processing, detergents and organic solvents were omitted from blocking and washing buffers. Rat IgM was detected using goat anti rat IgM (μspecific)-HRP conjugate followed by development with carbazole or DAB (Fries et al., 1993). Biotinylated reagents were detected by streptavidin conjugated to HRP.
Tumor sections derived from mice injected with saline or rat IgM of irrelevant specificity served as negative controls. Additional controls consisted of incubating the slides in 1% Triton solution or in acetone for 10 min. These treatments extract phospholipids. No signal was detected under these conditions. The number of positive vessels per high power field was determined at magnification of ×100. At least 10 fields per section were examined and the average percentage of positive vessels was calculated. Staining of the sections by this method for the presence of 9D2 or annexin V detects cells having externalized anionic phospholipids that were accessible for binding by the reagents in vivo.
Structures with localized 9D2 antibody or annexin V were identified as blood vessels by morphological appearance on DAB-stained sections and by co-incident staining with the pan-endothelial cell marker, MECA 32 on serial sections of frozen tissues. Quantification on DAB-stained sections was done by counting vessels stained by MECA 32, 9D2 or annexin V in serial sections of a tumor. Six slides of each tumor type derived from 6 mice injected with 9D2 antibody, control rat IgM or annexin V were examined. At least 10 random fields per section (0.317 mm^2/field) were scored in blinded fashion by two independent observers. The mean numbers and standard errors of vessels stained by 9D2, annexin V or MECA 32 were calculated. The mean number of 9D2 or annexin V-positive vessels determined in each tumor type group was compared to the mean number of MECA 32-positive vessels in the same tumor group. The percentage of 9D2 or annexin V-positive vessels was calculated.

With “Annexin V: high affinity PS binding ligand; natural ligand of anionic phospholipids and PE” as the substance, how does the EC50 ([1]; MW used for conversion: IgM 900 kDa, IgG 150 kDa, Annexin V 36 kDa, read-out: EC50) read?
Its EC50 is 2.77 nM.

And the “EC50” value ([1]; dilutions of tissue culture supernatants)?
The value was 0.100 µg/mL.

And the “Affinity vs. 3SB (-fold increased)” value ([1]; from EC50 in nM)?
Its value is 0.18 -fold.

What about the “Binding vs. 3SB (-fold increased)” value ([1]; from EC50 in μg/ml) of the same substance?
Its value is 4.68 -fold.

What about the “coaguligand-induced intravascular thrombosis and changes in tumor cell morphology” value ([2]; 100 μg Annexin V 2 hours before 40 μg coaguligand) of the same substance?
Its value is “completely abolished”.

What about the tumor morphology ([2]; 100 μg Annexin V alone) of the same substance?
The tumor morphology was “did not alter tumor morphology”.

What about the “Binding (% Control) of biotinylated 9D2 to PS” value [3] of the same substance?
Its value is 93%.

And the “Binding (% Control) of biotinylated annexin V to PS” value [3]?
Its value is 8%.

And the “PS-positive vessels of MECA 32-stained vessels (mean ±SE)” value (“PS-positive vessels … (mean ±SE)” for short) ([4]; B16 tumor)?
The value was 21.3 ± 6.6%.

And the “PS-positive vessels … (mean ±SE)” value ([4]; L540cy tumor)?
The value was 16.7 ± 3.9%.

And the “PS-positive vessels … (mean ±SE)” value ([4]; MDA-MB-231 tumor)?
Its value is 45.3 ± 5.6%.

And the “PS-positive vessels … (mean ±SE)” value ([4]; MDA-MB-231 tumor, listed as annexin V)?
The value was 40%.

What about the “PS-positive vessels … (mean ±SE)” value ([4]; NCI-H358 tumor) of the same substance?
Its value is 15%.

And the “vascular localization in normal organs” value ([4]; nine of ten normal organs examined (kidney tubules non-specific))?
Its value is “No vascular localization”.
